This is an account of results in patent publication US5214047A, “Tetracyclic quinazoline derivatives, effective as antiarrythmic agents” (priority 1987, dated 1993).

Counter-ions that a name gives are not always drawn. Like-named read-outs stand apart in the source and are kept apart here.

In the assay the test system is QT interval. Briefly: QT interval prolongation (ECG, class III action) in anesthetized guinea pigs. Conditions: for ED (20%): Cavia porcellus, read-out: Prolongation of the QT interval ED20%; for Potency relative to that of d-sotalol = 1.0: QT prolongation, ED20%. The assay is classed as in vivo, Pirbright white guinea pigs. The protocol:
The action of the novel substances has been tested as follows:
The experimental animals used were male and female Pirbright white guinea pigs weighing 300-500 g. 1.5 g/kg urethane i.p. were used for anesthesia. The substances were administered intravenously. The extremity lead II was recorded to measure the ECG conduction times and the heart rate. The measured variables were the QT and PQ intervals and the heart rate. 4-6 animals were used for each dose. The criterion for a class III action was an increase in the QT interval compared with the values before administration of the substance. A PQ increase and a large decrease in the heart rate were used as exclusion criteria. The ED20% is calculated from the linear relation between log dose (mg/kg) of the substance and the relative prolongation of the QT interval (Δ%).

Setting [1] is: guinea pigs, urethane anesthesia, intravenous, dose for 20% QT prolongation calculated from log dose (mg/kg) vs relative QT prolongation.

Regarding `Cc1ccc(C23CCCN2c2ccccc2C2=NCCN23)cc1` (centres unmarked) [Example 1, 2,3,5,6,7,8-Hexahydro-5-(4-methylphenyl)imidazo[1,2-c]pyrrolo[1,2-a]quinazoline], the ED (20%) under setting [1] is 1 mg/kg. Further, the “Potency relative to that of d-sotalol = 1.0” value (from here on “Potency relative to that”) (guinea pigs, intravenous) amounted to 3.6.

`Clc1ccc(C23CCCN2c2ccccc2C2=NCCN23)cc1` (centres unmarked) [Example 2]: the ED (20%) (iv) turned out to be 1.1 mg/kg. Moreover, the “Potency relative to that” value (guinea pigs, intravenous) is 3.3.

On to `Fc1ccc(C23CCCN2c2ccccc2C2=NCCN23)cc1` (centres unmarked) [Example 4, 5-(4-Fluorophenyl)-2,3,5,6,7,8-hexahydroimidazo[1,2-c]pyrrolo[1,2-a]quinazoline], for which the ED (20%) under setting [1] is 0.21 mg/kg. The “Potency relative to that” value (guinea pigs, intravenous) stood at 17.

`COc1cc2c(cc1OC)N1CCCC1(c1ccccc1)N1CCN=C21` (centres unmarked) [Example 5, 2,3,5,6,7,8-Hexahydro-11,12-dimethoxy-5-phenylimidazo[1,2-c]pyrrolo[1,2-a]quinazoline]: under setting [1], the ED (20%) is 1 mg/kg. The “Potency relative to that” value (guinea pigs, intravenous) is 3.5.

As for `COc1ccc(C23CCCN2c2ccccc2C2=NCCN23)cc1` (centres unmarked) [Example 8], under setting [1], the ED (20%) is 0.61 mg/kg. Besides, the “Potency relative to that” value (guinea pigs, intravenous) is 6.0.

For the compound `Clc1ccc(C23CCCN2c2ccccc2C2=NCCN23)cc1Cl` (centres unmarked) [Example 9], the ED (20%) under setting [1] was 1.5 mg/kg. Besides, under “guinea pigs, intravenous”, the “Potency relative to that” value was 2.4.

As to `Clc1ccc2c(c1)N1CCCC1(c1ccccc1)N1CCN=C21` (centres unmarked) [Example 11, 11-Chloro-2,3,5,6,7,8-hexahydro-5-phenylimidazo[1,2-c]pyrrolo[1,2-a]quinazoline], under setting [1], the ED (20%) is 0.4 mg/kg. Besides, where the note is “guinea pigs, intravenous”, the “Potency relative to that” value worked out at 9.0.

As to `Clc1ccc(C23CCCN2c2ccccc2C2=NCCN23)c(Cl)c1` (centres unmarked) [Example 13, 5-(2,4-Dichlorophenyl)-2,3,5,6,7,8-hexahydroimidazo[1,2-c]pyrrolo[1,2-a]quinazoline hydrochloride], under setting [1], the ED (20%) was 0.99 mg/kg. Further, the “Potency relative to that” value (guinea pigs, intravenous) worked out at 3.7.

As for `Fc1ccc(C23CCCN2c2cc(Cl)ccc2C2=NCCN23)cc1` (centres unmarked) [Example 15, 11-Chloro-5-(4-fluorophenyl)-2,3,5,6,7,8-hexahydroimidazo[1,2-c]pyrrolo[1,2-a]quinazoline hydrochloride], the ED (20%) under setting [1] was 0.43 mg/kg. Besides, the “Potency relative to that” value (guinea pigs, intravenous) was 8.5.

As for `Clc1ccc(C23CCCN2c2ccccc2C2=NCCN23)s1` (centres unmarked) [Example 19, 5-(2-(5-Chlorothienyl))-2,3,5,6,7,8-hexahydroimidazo[1,2-c]pyrrolo[1,2-a]quinazoline hydrochloride], under setting [1], the ED (20%) is 1.4 mg/kg. The “Potency relative to that” value (guinea pigs, intravenous) was 2.6.

For `O=[N+]([O-])c1ccc(C23CCCN2c2ccccc2C2=NCCN23)cc1` (centres unmarked) [Example 21, 2,3,5,6,7,8-Hexahydro-5-(4-nitrophenyl)imidazo[1,2-c]pyrrolo[1,2-a]quinazoline hydrochloride], the ED (20%) under setting [1] is 0.46 mg/kg. Moreover, for the setting “guinea pigs, intravenous”, the “Potency relative to that” value came out at 8.0.

As to `c1ccc(C23CCCN2c2ccccc2C2=NC4CCCCC4N23)cc1` (centres unmarked) [Example 22, 2,3,5,6,7,8-Hexahydro-2,3-tetramethylene-5-phenylimidazo[1,2-c]pyrrolo[1,2-a]quinazoline], where the note is “iv”, the ED (20%) turned out to be 0.56 mg/kg. Moreover, the “Potency relative to that” value (guinea pigs, intravenous) stood at 6.5.

On to `CC1CN=C2c3ccccc3N3CCCC3(c3ccccc3)N21` (centres unmarked) [Example 24, hydrochloride], for which, under setting [1], the ED (20%) was 0.29 mg/kg. Further, the “Potency relative to that” value (guinea pigs, intravenous) is recorded as 12.

For the compound `c1csc(C23CCCN2c2ccccc2C2=NCCCN23)c1` (centres unmarked) [Example 25], under setting [1], the ED (20%) is 0.58 mg/kg. The “Potency relative to that” value (guinea pigs, intravenous) stood at 6.2.

With `Clc1ccc(C23CCCN2c2ccccc2C2=NCCCN23)cc1` (centres unmarked) [Example 26, 6-(4-Chlorophenyl)-2,3,6,7,8,9-hexahydro-2H-pyrimido[1,2-c]pyrrolo[1,2-a]quinazoline], the ED (20%) under setting [1] is 1.5 mg/kg. Besides, where the note is “guinea pigs, intravenous”, the “Potency relative to that” value is 2.4.

As to `Fc1ccc(C23CCCN2c2ccccc2C2=NCCCN23)cc1` (centres unmarked) [Example 27, 6-(4-Fluorophenyl)-2,3,5,6,7,8-hexahydro-2H-pyrimido[1,2-c]pyrrolo[1,2-a]quinazoline], under setting [1], the ED (20%) is 0.42 mg/kg. Besides, the “Potency relative to that” value (guinea pigs, intravenous) amounted to 8.7.

As for `Clc1ccc(C23CCCN2c2ccccc2C2=NCCCN23)cc1Cl` (centres unmarked) [Example 28, 6-(3,4-Dichlorophenyl)-2,3,5,6,7,8-hexahydro-2H-pyrimido[1,2-c]pyrrolo[1,2-a]quinazoline], the ED (20%) under setting [1] is 0.94 mg/kg. In addition, the “Potency relative to that” value (guinea pigs, intravenous) is on record as 3.9.

`Clc1ccc2c(c1)C1=NCCCN1C1(c3ccccc3)CCCN21` (centres unmarked) [Example 29, 13-Chloro-2,3,5,6,7,8-hexahydro-6-phenyl-2H-pyrimido[1,2-c]pyrrolo[1,2-a]quinazoline hydrochloride]: the ED (20%) under setting [1] is 0.55 mg/kg. Where the note is “guinea pigs, intravenous”, the “Potency relative to that” value is 6.6.

Regarding `Fc1ccc(C23CCCN2c2ccc(Cl)cc2C2=NCCCN23)cc1` (centres unmarked) [Example 30, 13-Chloro-6-(4-fluorophenyl)-2,3,5,6,7,8-hexahydro-2H-pyrimido[1,2-c]pyrrolo[1,2-a]quinazoline], under setting [1], the ED (20%) was 1 mg/kg. The “Potency relative to that” value (guinea pigs, intravenous) is given as 3.6.

As to `O=[N+]([O-])c1cccc(C23CCCN2c2ccccc2C2=NCCCN23)c1` (centres unmarked) [Example 31, 2,3,5,6,7,8-Hexahydro-6-(3-nitrophenyl)-2H-pyrimido[1,2-c]pyrrolo[1,2-a]quinazoline], under setting [1], the ED (20%) is 0.56 mg/kg. Moreover, the “Potency relative to that” value (guinea pigs, intravenous) came out at 6.5.

Take `Clc1ccc(C23CCCN2c2ccccc2C2=NCCCN23)s1` (centres unmarked) [Example 33, 6-(2-(5-Chlorothienyl))-2,3,5,6,7,8-hexahydro-2H-pyrimido[1,2-c]pyrrolo[1,2-a]quinazoline]: under setting [1], the ED (20%) is 1.5 mg/kg. Further, the “Potency relative to that” value (guinea pigs, intravenous) is 2.4.

In the case of `O=[N+]([O-])c1ccc(C23CCCN2c2ccccc2C2=NCCCN23)cc1` (centres unmarked) [Example 34, 2,3,5,6,7,8-Hexahydro-6-(4-nitrophenyl)-2H-pyrimido[1,2-c]pyrrolo[1,2-a]quinazoline], under setting [1], the ED (20%) is 0.61 mg/kg. Also, the “Potency relative to that” value (guinea pigs, intravenous) was 6.0.

As for `COc1ccc(C23CCCN2c2ccccc2C2=NCCCN23)cc1` (centres unmarked) [Example 35, 2,3,5,6,7,8-Hexahydro-6-(4-methoxyphenyl)-2H-pyrimido[1,2-c]pyrrolo[1,2-a]quinazoline hydrochloride], the ED (20%) under setting [1] was 0.63 mg/kg. Further, the “Potency relative to that” value (guinea pigs, intravenous) worked out at 5.7.

Take `Clc1ccc2c(c1)N1CCCC1(c1ccccc1)N1CCCN=C21` (centres unmarked) [Example 37, 12-Chloro-2,3,5,6,7,8-hexahydro-6-phenyl-2H-pyrimido[1,2-c]pyrrolo[1,2-a]quinazoline hydrochloride]: the ED (20%) under setting [1] was 0.69 mg/kg. Further, the “Potency relative to that” value (guinea pigs, intravenous) amounted to 5.3.

With `Fc1ccc(C23CCCN2c2cc(Cl)ccc2C2=NCCCN23)cc1` (centres unmarked) [Example 38, 2-Chloro-6-(4-fluorophenyl)-2,3,5,6,7,8-hexahydro-2H-pyrimido[1,2-c]pyrrolo[1,2-a]quinazoline hydrochloride], the ED (20%) under setting [1] is 0.83 mg/kg. Also, the “Potency relative to that” value (guinea pigs, intravenous) was 4.4.
